Results on five compounds are retold here after ChEMBL document CHEMBL1649218, “New treatment option for second-stage African sleeping sickness: in vitro and in vivo efficacy of aza analogs of DB289” (Antimicrob Agents Chemother, 2009).

Converted amounts (≈) assume the structure as drawn. The source made the active and inactive calls. No cut-off for these calls is given here.

Assay [1] concerns Trypanosoma brucei brucei. The assay is described as follows: Antitrypanosomal activity against Trypanosoma brucei brucei GVR35 infected in NMRI mouse CNS model assessed as survival of mouse at 75 mg/kg, po for 5 days. The format is functional.
Assay [2] deals with Trypanosoma brucei rhodesiense. The assay is described as follows: Antitrypanosomal activity against wild-type Trypanosoma brucei rhodesiense STIB900 infected in NMRI mouse assessed as cure from infection at 25 mg/kg, po for 4 days. The format is functional, organism-based. Also noted: dose 25 mg/kg.
Assay [3] deals with Trypanosoma brucei rhodesiense. In words: Antitrypanosomal activity against wild-type Trypanosoma brucei rhodesiense STIB900 infected in NMRI mouse assessed as survival of mouse at 5 mg/kg, po for 4 days. The format is functional.
In assay [4] the test system is Trypanosoma brucei brucei. The assay is described as follows: Antitrypanosomal activity against Trypanosoma brucei brucei GVR35 infected in NMRI mouse CNS model assessed as survival of mouse at 100 mg/kg, po for 5 days. The format is functional.
Assay [5] concerns Trypanosoma brucei brucei. In words: Antitrypanosomal activity against Trypanosoma brucei brucei GVR35 infected in NMRI mouse CNS model assessed as survival of mouse at 50 mg/kg, po for 5 days. The format is functional.
The subject of assay [6] is Trypanosoma brucei rhodesiense. The assay is described as follows: Antitrypanosomal activity against wild-type Trypanosoma brucei rhodesiense STIB900 infected in NMRI mouse assessed as survival of mouse at 25 mg/kg, po for 4 days. The assay is classed as functional.
Assay [7] relates to Trypanosoma brucei brucei. The assay is described as follows: Antitrypanosomal activity against Trypanosoma brucei brucei GVR35 infected in NMRI mouse CNS model assessed as cure from infection at 100 mg/kg, po for 5 days. The format is functional, organism-based. Also on record: dose 100 mg/kg.
Assay [8] concerns Trypanosoma brucei rhodesiense. The assay is described as follows: Antitrypanosomal activity against wild-type Trypanosoma brucei rhodesiense STIB900 infected in NMRI mouse assessed as survival of mouse at 100 mg/kg, po for 4 days. The format is functional.
For assay [9], the system named is Trypanosoma brucei brucei. In words: Antitrypanosomal activity against Trypanosoma brucei brucei GVR35 infected in NMRI mouse CNS model assessed as survival of mouse at 10 mg/kg, po for 10 days. The assay is classed as functional.
Assay [10] concerns Trypanosoma brucei rhodesiense. The assay is described as follows: Antitrypanosomal activity against wild-type Trypanosoma brucei rhodesiense STIB900 infected in NMRI mouse assessed as cure from infection at 5 mg/kg, po for 4 days. The format is functional, organism-based. Also noted: dose 5 mg/kg.
Assay [11] has as its system Trypanosoma brucei rhodesiense. The assay is described as follows: Antitrypanosomal activity against wild-type Trypanosoma brucei rhodesiense STIB900 infected in NMRI mouse assessed as cure from infection at 20 mg/kg, ip for 4 days. The assay is classed as functional, organism-based. Also noted: dose 20 mg/kg.
Assay [12] concerns Trypanosoma brucei rhodesiense. The assay is described as follows: Antitrypanosomal activity against wild-type Trypanosoma brucei rhodesiense STIB900 infected in NMRI mouse assessed as survival of mouse at 10 mg/kg, ip for 4 days. The format is functional. Particulars: route intraperitoneal.
Assay [13] has as its system Trypanosoma brucei rhodesiense. In words: Ratio of IC50 for melasoprol-resistant Trypanosoma brucei rhodesiense STIB900 to IC50 for wild-type Trypanosoma brucei rhodesiense […]. The assay is classed as functional.
Assay [14] can be described thus: Ratio of IC50 for Trypanosoma brucei gambiense ITMAP141267 to IC50 for wild-type Trypanosoma brucei rhodesiense […]. The assay is classed as functional.
The subject of assay [15] is Trypanosoma brucei rhodesiense. The assay is described as follows: Antitrypanosomal activity against wild-type Trypanosoma brucei rhodesiense STIB900 infected in NMRI mouse assessed as survival of mouse at 2.5 mg/kg, ip for 4 days. The assay is classed as functional. Conditions: route intraperitoneal.
Assay [16] deals with Trypanosoma brucei rhodesiense. In words: Antitrypanosomal activity against melasoprol-resistant Trypanosoma brucei rhodesiense STIB900 by Alamar blue assay. The assay is classed as functional, organism-based.
Assay [17] has as its system Trypanosoma brucei brucei. In words: Antitrypanosomal activity against Trypanosoma brucei brucei GVR35 infected in NMRI mouse CNS model assessed as cure from infection at 20 mg/kg, ip for 5 days. The assay is classed as functional, organism-based. Also on record: dose 20 mg/kg.
Assay [18] has as its system Trypanosoma brucei rhodesiense. The assay is described as follows: Antitrypanosomal activity against wild-type Trypanosoma brucei rhodesiense STIB900 infected in NMRI mouse assessed as cure from infection at 0.5 mg/kg, ip for 4 days. The assay is classed as functional, organism-based. Also noted: dose 0.5 mg/kg.
Assay [19] concerns Trypanosoma brucei gambiense. In words: Antitrypanosomal activity against Trypanosoma brucei gambiense ITMAP141267 by Alamar blue assay. The assay is classed as functional, organism-based. A general note: Alamar Blue is a resazurin reagent that responds to reducing activity.
Assay [20] can be described thus: Ratio of IC50 for Trypanosoma brucei gambiense K03048 to IC50 for wild-type Trypanosoma brucei rhodesiense STIB900. The format is functional.
The subject of assay [21] is Trypanosoma brucei rhodesiense. In words: Antitrypanosomal activity against wild-type Trypanosoma brucei rhodesiense STIB900 infected in NMRI mouse assessed as survival of mouse at 20 mg/kg, ip for 4 days. The format is functional. Conditions: route intraperitoneal.
In assay [22] the test system is Trypanosoma brucei gambiense. The assay is described as follows: Ratio of IC50 for Trypanosoma brucei gambiense K03048 to IC50 for Trypanosoma brucei gambiense STIB930. The format is functional.
Assay [23] deals with Trypanosoma brucei rhodesiense. The assay is described as follows: Antitrypanosomal activity against wild-type Trypanosoma brucei rhodesiense STIB900 infected in NMRI mouse assessed as cure from infection at 10 mg/kg, ip for 4 days. The assay is classed as functional, organism-based. Also noted: dose 10 mg/kg.
Assay [24] can be described thus: Ratio of IC50 for Trypanosoma brucei gambiense STIB930 to IC50 for wild-type Trypanosoma brucei rhodesiense […]. The format is functional.
Assay [25] has as its system Trypanosoma brucei brucei. In words: Ratio of IC50 for Trypanosoma brucei brucei AT1KO to IC50 for Trypanosoma brucei brucei BS221. The format is functional.
Assay [26] has as its system Trypanosoma brucei gambiense. The assay is described as follows: Antitrypanosomal activity against Trypanosoma brucei gambiense STIB930 by Alamar blue assay. The assay is classed as functional, organism-based.
Assay [27] concerns Trypanosoma brucei brucei. In words: Antitrypanosomal activity against Trypanosoma brucei brucei BS221 by Alamar blue assay. The assay is classed as functional, organism-based.
In assay [28] the test system is Trypanosoma brucei rhodesiense. The assay is described as follows: Ratio of IC50 for pentamidine-resistant Trypanosoma brucei rhodesiense STIB900 to IC50 for wild-type Trypanosoma brucei rhodesiense STIB900. The format is functional.
In assay [29] the test system is Trypanosoma brucei rhodesiense. The assay is described as follows: Antitrypanosomal activity against wild-type Trypanosoma brucei rhodesiense STIB900 infected in NMRI mouse assessed as survival of mouse at 0.5 mg/kg, ip for 4 days. The format is functional. Particulars: route intraperitoneal.
The test system of assay [30] is Trypanosoma brucei brucei. In words: Antitrypanosomal activity against Trypanosoma brucei brucei GVR35 infected in NMRI mouse CNS model assessed as survival of mouse at 20 mg/kg, ip for 5 days. The assay is classed as functional. Particulars: route intraperitoneal.
Assay [31] deals with Trypanosoma brucei rhodesiense. The assay is described as follows: Antitrypanosomal activity against pentamidine-resistant Trypanosoma brucei rhodesiense STIB900 by Alamar blue assay. The format is functional, organism-based.
Assay [32] has as its system Trypanosoma brucei rhodesiense. The assay is described as follows: Antitrypanosomal activity against wild-type Trypanosoma brucei rhodesiense STIB900 by Alamar blue assay. The format is functional, organism-based.
In assay [33] the test system is Trypanosoma brucei brucei. The assay is described as follows: Antitrypanosomal activity against Trypanosoma brucei brucei GVR35 infected in NMRI mouse CNS model assessed as survival of mouse at 20 mg/kg, ip for 10 days. The format is functional. Conditions: route intraperitoneal.
The subject of assay [34] is Trypanosoma brucei gambiense. The assay is described as follows: Antitrypanosomal activity against Trypanosoma brucei gambiense K03048 by Alamar blue assay. The format is functional, organism-based.
Assay [35] relates to Trypanosoma brucei rhodesiense. The assay is described as follows: Antitrypanosomal activity against wild-type Trypanosoma brucei rhodesiense STIB900 infected in NMRI mouse assessed as survival of mouse at 5 mg/kg, ip for 4 days. The assay is classed as functional. Conditions: route intraperitoneal.
Assay [36] concerns Trypanosoma brucei brucei. In words: Antitrypanosomal activity against Trypanosoma brucei brucei AT1KO by Alamar blue assay. The assay is classed as functional, organism-based.
Assay [37] has as its system Trypanosoma brucei brucei. In words: Antitrypanosomal activity against Trypanosoma brucei brucei GVR35 infected in NMRI mouse CNS model assessed as cure from infection at 25 mg/kg, po for 5 days. The format is functional, organism-based. Also noted: dose 25 mg/kg.
Assay [38] relates to Trypanosoma brucei brucei. In words: Antitrypanosomal activity against Trypanosoma brucei brucei GVR35 infected in NMRI mouse CNS model assessed as survival of mouse at 50mg/kg, po for 10 days. The assay is classed as functional.
For assay [39], the system named is Trypanosoma brucei brucei. In words: Antitrypanosomal activity against Trypanosoma brucei brucei GVR35 infected in NMRI mouse CNS model assessed as cure from infection at 50 mg/kg, po for 5 days. The assay is classed as functional, organism-based. Also noted: dose 50 mg/kg.
Assay [40] has as its system Trypanosoma brucei brucei. The assay is described as follows: Antitrypanosomal activity against Trypanosoma brucei brucei GVR35 infected in NMRI mouse CNS model assessed as survival of mouse at 25 mg/kg, po for 5 days. The format is functional.
The subject of assay [41] is Trypanosoma brucei brucei. The assay is described as follows: Antitrypanosomal activity against Trypanosoma brucei brucei GVR35 infected in NMRI mouse CNS model assessed as cure from infection at 25 mg/kg, po for 10 days. The format is functional, organism-based. Also noted: dose 25 mg/kg.
The subject of assay [42] is Trypanosoma brucei rhodesiense. In words: Antitrypanosomal activity against wild-type Trypanosoma brucei rhodesiense STIB900 infected in NMRI mouse assessed as survival of mouse at 50 mg/kg, po for 4 days. The format is functional.
Assay [43] relates to Trypanosoma brucei rhodesiense. The assay is described as follows: Antitrypanosomal activity against wild-type Trypanosoma brucei rhodesiense STIB900 infected in NMRI mouse assessed as cure from infection at 50 mg/kg, po for 4 days. The format is functional, organism-based. Also on record: dose 50 mg/kg.
The test system of assay [44] is Trypanosoma brucei brucei. The assay is described as follows: Antitrypanosomal activity against Trypanosoma brucei brucei GVR35 infected in NMRI mouse CNS model assessed as survival of mouse at 25 mg/kg, po for 10 days. The format is functional.

Regarding `CO/N=C(\N)c1ccc(-c2ccc(-c3ccc(/C(N)=N\O)cn3)o2)cc1`, the MSD in assay [1] was greater than 164.8 days; in [3] it was greater than 39.5 days; in assay [4] it was greater than 180 days; in assay [5], greater than 157.2 days; in assay [6] it was greater than 60 days. Also, the result in assay [2] and in [7] was Active.

With `N=C(NO)c1ccc(-c2ccc(-c3ccc(/C(N)=N/O)cn3)o2)cc1`, the MSD in [8] was greater than 54 days. In addition, the outcome in assay [9] was Active.

Consider `CO/N=C(/N)c1ccc(-c2ccc(-c3ccc(/C(N)=N/O)cn3)o2)nc1`, for which the result in assay [2] was Active. Moreover, the values for the MSD in [3], in [4] and in [6] were 29.7 days, greater than 140.4 days and greater than 61 days, respectively. The outcome in [10] was inactive.

Regarding `N=C(N)c1ccc(-c2ccc(-c3ccc(C(=N)N)cn3)o2)cc1`, the outcome in assay [11] and in assay [23] was Active. Besides, the MSD was greater than 60 days in assay [12]; greater than 49 days in [15]; greater than 60 days in assay [21]; 29 days in [29]; 102.5 days in assay [30]; greater than 128.2 days in assay [33]. Moreover, the MSD in assay [35] was greater than 54.5 days. Also, the “Ratio IC50” value in [13] was found to be 12.4; in assay [14], 2.4; in assay [20], 3.5; in assay [22], 14; in [24], 3.5; in assay [25], 15.4. Moreover, the “Ratio IC50” value in assay [28] was 9.6. The IC50 in assay [16] was determined as 29.2 ng/mL (≈ 0.0956 µM); in assay [19], 5.7 ng/mL (≈ 0.0187 µM); in [26], 8.4 ng/mL (≈ 0.0275 µM); in assay [27], 2.8 ng/mL (≈ 0.00917 µM); in assay [31], 22.5 ng/mL (≈ 0.0737 µM); in [32], 2.4 ng/mL (≈ 0.00786 µM). The figures for the IC50 in assay [34] and in assay [36] were 8.4 ng/mL (≈ 0.0275 µM) and 42.9 ng/mL (≈ 0.14 µM), respectively. In addition, the outcome in [17] and in assay [18] was inactive.

For `CONC(=N)c1ccc(-c2ccc(-c3ccc(C(=N)NOC)cc3)o2)cc1` [PAFURAMIDINE], the result in [37], in [39] and in assay [41] was inactive. Also, the result in [2] and in assay [43] was Active. Moreover, the MSD in assay [4] was greater than 167.8 days; in assay [38] it was greater than 172.2 days; in assay [40], 75.4 days; in [5], greater than 153.6 days; in assay [6], greater than 60 days; in [42], greater than 60 days. Further, the MSD in assay [44] was greater than 146.6 days.

By IC50 is commonly meant the point on the concentration scale where inhibition reaches its midpoint. A higher IC50 goes with weaker potency.
